This is an account of results in publication PMC9820430, “New Affordable Methods for Large-Scale Isolation of Major Olive Secoiridoids and Systematic Comparative Study of Their Antiproliferative/Cytotoxic Effect on Multiple Cancer Cell Lines of Different Cancer Origins” (International Journal of Molecular Sciences, 2022).

One experiment concerns HepG-2. The experiment is described as follows: ATP-based luminescence cell viability assay (ViaLight), 72 h. As to conditions: 72 h treatment, read-out: EC50 Values of Olive Oil Polyphenols. More on the design: species or system human. Here is the method: (§1) The antiproliferative/cytotoxic effects of the selected OOPs on each cell line were assessed by measuring the cellular ATP levels after 72 h treatments using an ATP-based luminescence assay. This assay, initially developed as a tumor chemosensitivity assay, has shown considerable promise as a general in vitro toxicity assay due to its high sensitivity that allows the detection of a small number of cells. Consequently, it can be applied to both cancer cell lines and primary tissue cells. […] The EC50 values were calculated by nonlinear regression (curve fit) using a sigmoidal dose–response equation (Figure 2A and Figure S2).
(§2) The OOPs tested in this study were first dissolved in an appropriate DMSO volume such as to prepare a final stock solution of 50 mM, which was further used to prepare various compound concentrations in DMSO-based solutions. The final DMSO concentration in the cell culture was maintained constant in all treated groups of any given experiment and never exceeded the value of 0.2% (v/v). For the treatment experiments, cells were plated in 96-well culture plates, in 100 μL of complete medium at a seeding density of 5000–10,000 cells/well—depending on cells’ size and doubling time—and were allowed to adhere overnight (~16 h). The next day, 150 μL of complete medium was added to each well and the cells were treated with various concentrations of OOPs. Each concentration was tested in triplicate and was repeated 2–3 times. To prepare the final concentration solutions, 0.5 μL of a 500× stock of each tested compound in DMSO was added directly into each well in a final volume of 250 μL culture medium and was gently mixed by pipetting. Control wells were prepared under the same experimental conditions by adding only DMSO at a final concentration of 0.2% (v/v). Compounds were not renewed during the entire period of cell exposure. All cells were cultured at 37 °C in a 5% (v/v) CO2 for 24, 48 or 72 h.
(§3) Briefly, after the treatment with OOPs, the adapted medium was removed from the dish wells and the cells were washed twice with medium without FBS. Then, the C-lysis (LT27-076) was diluted in PBS (1:2) and a volume of 50 μL was added to each well. Cells were incubated with C-lysis for at least 10 min. Finally, an equal volume of lysed cells from each well and ATP monitoring reagent (AMR; LT27-212) was transferred to the wells of a white-walled illuminometer plate (Greiner bio-one; 655074). Cell viability was quantified by measuring luminescence using a multi-mode microplate reader Safire^2 Tecan (software Magellan V6.00 STD.2PC WIN.20000/XP).

The subject of another experiment is A2058. The description is as above. As to conditions: for Selectivity index SI (HaCaT): EC50 HaCaT / EC50 A2058; for Selectivity index SI (NHDF): EC50 NHDF / EC50 A2058; for EC50: A2058, 72 h treatment, read-out: EC50 Values of Olive Oil Polyphenols. More on the design: species or system human. Here is the method: as §1, §2, §3
The next experiment deals with Huh-7. The description is as above. More on the design: species or system human. As to conditions: 72 h treatment, read-out: EC50 Values of Olive Oil Polyphenols. Here is the method: as §1, §2, §3
The subject of another experiment is MCF-7. The description is as above. Details: species or system human. As to conditions: 72 h treatment, read-out: EC50 Values of Olive Oil Polyphenols. The procedure:
as §1, §2, §3

In a further experiment the test system is MCF 10A. The description is as above. Details: species or system human. As to conditions: MCF 10A (non-tumorigenic epithelial), 72 h treatment, read-out: EC50 Values of Olive Oil Polyphenols. The procedure:
as §1, §2, §3

For a further experiment, the system named is PANC-1. The description is as above. As to conditions: 72 h treatment, read-out: EC50 Values of Olive Oil Polyphenols. More on the design: species or system human. Here is the method: as §1, §2, §3
In another experiment the test system is HaCaT. The description is as above. Details: species or system human. As to conditions: HaCaT (immortal keratinocytes), 72 h treatment, read-out: EC50 Values of Olive Oil Polyphenols. The procedure: as §1, §2, §3
The next experiment concerns MRC-5. The description is as above. As to conditions: MRC-5 (non cancer, lung), 72 h treatment, read-out: EC50 Values of Olive Oil Polyphenols. Details: species or system human. Here is the method:
as §1, §2, §3

Another experiment deals with ME-180. The description is as above. Details: species or system human. As to conditions: 72 h treatment, read-out: EC50 Values of Olive Oil Polyphenols. Here is the method:
as §1, §2, §3

In the next experiment the test system is SK-BR-3. The description is as above. As to conditions: for Selectivity index SI (MCF 10A): EC50 MCF 10A / EC50 SK-BR-3; for EC50: SK-BR-3, 72 h treatment, read-out: EC50 Values of Olive Oil Polyphenols. Details: species or system human. The procedure: as §1, §2, §3
Another experiment has as its system H1437. The experiment is described as above. More on the design: species or system human. As to conditions: for Selectivity index SI (MRC-5): EC50 MRC-5 / EC50 H1437; for EC50: H1437, 72 h treatment, read-out: EC50 Values of Olive Oil Polyphenols. Here is the method:
as §1, §2, §3

For the next experiment, the system named is H1299. The description is as above. As to conditions: for Selectivity index SI (MRC-5): EC50 MRC-5 / EC50 H1299; for EC50: H1299, 72 h treatment, read-out: EC50 Values of Olive Oil Polyphenols. Details: species or system human. The procedure: as §1, §2, §3
Another experiment relates to AGS. Described as above. More on the design: species or system human. As to conditions: 72 h treatment, read-out: EC50 Values of Olive Oil Polyphenols. The procedure:
as §1, §2, §3

In experiment [1] the test system is sixteen human cancer cell lines originating from eight different tissues. The experiment is described as follows: ATP-based luminescence cell viability assay, whole panel. As to conditions: for Bioactivity range on cancer cell lines (grade in words): Figure 3, sixteen cancer cell lines; for EC50: 72 h treatment. Here is the method:
as §1, §2, §3

Where [2] appears, read: Homo sapiens, range across cancer cell lines, read-out: EC50, range over the cancer cell lines.

Like-named read-outs stand apart in the source and are kept apart here.

For the compound `COC(=O)C1=COC(C)[C@@H](C=O)[C@@H]1CC(=O)OCCc1ccc(O)c(O)c1` (mixture of isomers) [3a,b, oleuropein aglycone], the EC50 (in general, the concentration needed to bring the measured effect to its halfway point) came out at 17.7 ± 0.5 µM with HepG-2 (Homo sapiens, HepG2, 72 h); 37.2 ± 0.8 µM with A2058 (Homo sapiens, A2058, 72 h); 13 ± 0.1 µM in the experiment with Huh-7 (Homo sapiens, Huh-7, 72 h); 32.2 ± 1.1 µM with MCF-7 (Homo sapiens, MCF7, 72 h); 9.5 ± 0.4 µM with MCF 10A (Homo sapiens); 19.1 ± 0.6 µM in the experiment on PANC-1 (Homo sapiens, PANC-1, 72 h). Moreover, the concentration for a half-maximal effect (EC50) in the experiment with HaCaT (Homo sapiens, HaCaT, 72 h) is 36.6 µM; in the experiment with MRC-5 (Homo sapiens, MRC5), 8.6 ± 0.4 µM; with ME-180 (Homo sapiens, ME-180, 72 h), 25.5 ± 0.5 µM; in the experiment on SK-BR-3 (Homo sapiens, SK-BR-3, 72 h) it was 17.7 ± 1.4 µM; in the experiment with H1437 (Homo sapiens, NCI-H1437, 72 h), 11.9 ± 0.6 µM; in the experiment with H1299 (Homo sapiens, NCI-H1299) it was 24.1 ± 0.9 µM. The EC50 in the experiment with AGS (Homo sapiens, 72 h) was 35.9 ± 1.4 µM; in [1] (setting [2]), 11.9 to 50.1 µM. In addition, the “Selectivity index SI (HaCaT)” value with A2058 is on record as 1.0. In addition, in the experiment with A2058, the “Selectivity index SI (NHDF)” value is 1.1. In the experiment on SK-BR-3, the “Selectivity index SI (MCF 10A)” value is 0.5. The “Selectivity index SI (MRC-5)” value worked out at 0.7 in the experiment on H1437 and 0.4 in the experiment with H1299. Also, in experiment [1], the “Bioactivity range on cancer cell lines (grade in words)” value (“Bioactivity range on cancer cell lines” below) is “Very strong activity on 7/16 cancer cell lines”.

Consider `C/C=C(/C=O)[C@@H](CC=O)CC(=O)OCCc1ccc(O)cc1` [compound 1, oleocanthal], for which the EC50 in the experiment with HepG-2 (Homo sapiens, HepG2, 72 h) was 40 ± 5.3 µM; in the experiment with A2058 (Homo sapiens, A2058, 72 h), 18.4 ± 0.4 µM; with Huh-7 (Homo sapiens, Huh-7, 72 h), 20.2 ± 1.5 µM; in the experiment with MCF-7 it was 24.6 ± 2.6 µM; in the experiment on MCF-7 (Homo sapiens, MCF7, 72 h), > 25 µM; in the experiment on MCF 10A (Homo sapiens), 7 ± 0.3 µM. The EC50 with PANC-1 (Homo sapiens, PANC-1, 72 h) turned out to be 14.9 ± 0.9 µM; in the experiment on HaCaT (Homo sapiens, HaCaT, 72 h), 19.3 ± 0.3 µM; in the experiment on MRC-5 (Homo sapiens, MRC5), 2 ± 0.1 µM; with ME-180 (Homo sapiens, ME-180, 72 h), 9.1 ± 0.3 µM; in the experiment with SK-BR-3 (Homo sapiens, SK-BR-3, 72 h), 13 ± 0.6 µM; with H1437 (Homo sapiens, NCI-H1437, 72 h), 26.5 ± 1.1 µM. In addition, the EC50 with AGS (Homo sapiens, 72 h) is 18.3 ± 1 µM; in [1] (Homo sapiens, most cancer cell lines, read-out: EC50 in most cancer cell lines) it was 9 to 20 µM; in experiment [1] (setting [2]), 9.1 to 44.6 µM. The “Bioactivity range on cancer cell lines” value in [1] was “Very strong activity on 10/16 cancer cell lines”.

ligstroside aglycone [4a,b]: the half-maximal effective concentration (EC50) in the experiment on HepG-2 was 45.8 ± 3.4 µM; with A2058, 63.6 ± 1.6 µM; in the experiment with Huh-7, 36 ± 0.9 µM; in the experiment with MCF-7, 61.8 ± 1.2 µM; in the experiment with MCF 10A it was 55.8 ± 2.7 µM; in the experiment on PANC-1, 45.7 ± 1.4 µM. Besides, the EC50 with HaCaT is 55.6 ± 1 µM; in the experiment on MRC-5, 13.2 ± 0.9 µM; in the experiment with ME-180 it was 51.1 ± 2.2 µM; in the experiment with SK-BR-3 it was 21.5 ± 2.5 µM; with H1437, 11.6 ± 1.1 µM; in the experiment on H1299 it was 83.3 ± 1.9 µM. In addition, the 50% effective concentration (EC50) in the experiment on AGS is 48.5 ± 2.5 µM; in experiment [1] (range across cancer cell lines, read-out: EC50, range over the cancer cell lines), 11.6 to 98.2 µM. Moreover, in the experiment on A2058, the “Selectivity index SI (HaCaT)” value is 0.9. In addition, the “Selectivity index SI (NHDF)” value with A2058 is 0.7. Besides, the “Selectivity index SI (MCF 10A)” value in the experiment with SK-BR-3 is 2.6. Also, the “Selectivity index SI (MRC-5)” value stood at 1.1 in the experiment on H1437 and 0.2 in the experiment on H1299. Also, the “Bioactivity range on cancer cell lines” value in experiment [1] is given as “Very strong activity on lung cancer cell lines”.

`C/C=C(/C=O)[C@@H](CC=O)CC(=O)OCCc1ccc(O)c(O)c1` [compound 2, oleacein]: the EC50 was 82.8 ± 0.7 µM in the experiment on HepG-2 (Homo sapiens, HepG2, 72 h); 55.7 ± 3.4 µM with A2058 (Homo sapiens, A2058, 72 h); 49.6 ± 0.5 µM with Huh-7 (Homo sapiens, Huh-7, 72 h); > 100 µM in the experiment with MCF-7 (Homo sapiens, MCF7, 72 h); 24.7 ± 2.7 µM in the experiment on MCF 10A (Homo sapiens); 30.9 ± 0.2 µM with PANC-1 (Homo sapiens, PANC-1, 72 h). For the same compound, the EC50 with HaCaT was 51.8 ± 4.2 µM; with HaCaT (Homo sapiens, HaCaT, 72 h) it was > 50 µM; in the experiment with MRC-5 (Homo sapiens, MRC5) it was 7 ± 0.9 µM; in the experiment on ME-180 (Homo sapiens, ME-180, 72 h), 25.2 ± 0.2 µM; in the experiment with SK-BR-3 (Homo sapiens, SK-BR-3, 72 h) it was 45.6 ± 2.2 µM; in the experiment with H1437 (Homo sapiens, NCI-H1437, 72 h), 74.6 ± 2.1 µM. For the same compound, the concentration for a half-maximal effect (EC50) with H1299 (Homo sapiens, NCI-H1299) is 61.7 ± 1.3 µM; with AGS (Homo sapiens, 72 h), 46.2 ± 2.3 µM; in experiment [1] (setting [2]), > 25 µM. Further, the “Selectivity index SI (HaCaT)” value with A2058 is listed as 0.9. Further, the “Selectivity index SI (NHDF)” value with A2058 was 0.9. The “Selectivity index SI (MCF 10A)” value with SK-BR-3 is listed as 0.5. The “Selectivity index SI (MRC-5)” value in the experiment on H1437 and in the experiment with H1299 was 0.1 in each case. Further, the “Bioactivity range on cancer cell lines” value in experiment [1] is “Good/moderate activity on 9/16 cancer cell lines”.
